Laboratory results published in patent US6025376A, “Chiral methylphenyloxazolidinones” (Schering Aktiengesellschaft, priority 1995, dated 2000).

Tests used:
[1] = tested on: phosphodiesterase type IV (PDE IV); assay: Head-twitch test in rats (characteristic of PDE IV inhibitors); assay type: in vivo, male Wistar rats; conditions: observed 15-75 minutes after injection, MED = lowest dose with statistically significant effect
Procedure: (§1) The improved effectiveness of the new chiral methylphenyloxazolidinone derivatives in comparison with the racemate can be shown based on the head twitch and grooming reactions in rats that are characteristic of phosphodiesterase type IV (PDE IV) inhibitors. The racemate and the appropriate enantiomers were administered intraperitoneally (i.p.) to male Wistar rats and the occurrence of head twitches and grooming for 15-75 minutes after injection was detected by observation.
(§2) MED: Minimum effective dose, i.e., the lowest dose that ensures a statistically significant effect.

[2] = tested on: phosphodiesterase type IV (PDE IV); assay: Grooming reaction in rats (characteristic of PDE IV inhibitors); assay type: in vivo, male Wistar rats; conditions: observed 15-75 minutes after injection, MED = lowest dose with statistically significant effect
Procedure: as §1, §2

[3] = biological target: 3H-Rolipram bond in brain homogenates; assay: Displacement of radiolabeled Rolipram in brain homogenates; assay type: binding; conditions: calculated from IC50: Ki = IC50/[1+(L/KD)]
Procedure: The action of the enantiomers on the central nervous system was studied in vitro by examining their capacity to displace radiolabeled Rolipram in brain homogenates (Europ. Journ. of Pharmac. Vol. 127, 105-115 (1986)). The IC50 values (the concentration at which 50% inhibition action occurs) were converted to inhibition constant Ki, which is calculated according to the following formula: […]
in which L means the concentration of the radioactive tracer and KD means the dissociation constant of the ^3 H-Rolipram bond, which is determined separately.

TNF-α release = assay: Inhibition of LPS-stimulated TNF-α release from macrophage cell line RAW 264 (Elisa); assay type: cell-based, murine; conditions: Mus musculus, RAW264.7, 30 min preincubation, LPS 10 ng/ml, 18 hours
Procedure: A murine macrophage cell line (RAW 264) was preincubated for 30 minutes in the presence and in the absence of various concentrations of PDE-IV inhibitors and then stimulated with LPS (10 ng/ml). 18 hours after stimulation, the culture medium was removed, and the TNF-α release was measured with a specific Elisa test. The test can be obtained from various companies, i.a., from the British biotechnology company Genzyme, and it is carried out as the manufacturer describes.

SMILES | Ki [3] | Head-Twitch Test MED i.p. [1] | Grooming MED i.p. [2] | IC50 (TNF-α release)
COc1ccc(C2(C)CNC(=O)O2)cc1OC1CCCC1 (racemic) [(R,S) - 1, (R,S)-5-(3-Cyclopentyloxy-4-methoxyphenyl)-5-methyl-2-oxazolidinone] | 0.57 nM | 1.56 mg/kg | 0.1 mg/kg | 
COc1ccc([C@]2(C)CNC(=O)O2)cc1OC1CCCC1 [(R) - (-) - 1, (R)-(-)-5-(3-Cyclopentyloxy-4-methoxyphenyl)-5-methyl-2-oxazolidinone] | 0.34 nM | 0.39 mg/kg | 0.1 mg/kg | 
CCCOc1cc([C@]2(C)CNC(=O)O2)ccc1OC [(R) - (-) - 2, (R)-(-)-5-(4-Methoxy-3-propoxyphenyl)-5-methyl-2-oxazolidinone] | 0.24 nM |  |  | 250 nM
COc1ccc([C@@]2(C)CNC(=O)O2)cc1OC1CCCC1 [(S) - (+) - 1, (S)-(+)-5-(3-Cyclopentyloxy-4-methoxyphenyl)-5-methyl-2-oxazolidinone] | 3 nM | 6.25 mg/kg | 6.25 mg/kg | 

Second part, led by results:

Ki [3] | SMILES | Head-Twitch Test MED i.p. [1] | Grooming MED i.p. [2] | IC50 (TNF-α release)
0.61 nM | CCCOc1cc(C2(C)CNC(=O)O2)ccc1OC (racemic) [(RS) - 2, (R,S)-5-(4-Methoxy-3-propoxyphenyl)-5-methyl-2-oxazolidinone] |  |  | 500 nM
0.68 nM | CCOc1cc(C2(C)CNC(=O)O2)ccc1OC (racemic) [Ethyl- Racemate, (R,S)-5-(3-Ethoxy-4-methoxyphenyl)-5-methyl-2-oxazolidinone] |  |  | 
16 nM | CCCOc1cc([C@@]2(C)CNC(=O)O2)ccc1OC [(S) - (+) - 2, (S)-(+)-5-(4-Methoxy-3-propoxyphenyl)-5-methyl-2-oxazolidinone] |  |  | 2500 nM
0.33 nM | CCOc1cc([C@]2(C)CNC(=O)O2)ccc1OC [Ethyl- (R)-(-)-Isomer, (R)-(-)-5-(3-Ethoxy-4-methoxyphenyl)-5-methyl-2-oxazolidinone] |  |  | 
20 nM | CCOc1cc([C@@]2(C)CNC(=O)O2)ccc1OC [Ethyl- (S)-(+)-Isomer, (S)-(+)-5-(3-Ethoxy-4-methoxyphenyl)-5-methyl-2-oxazolidinone] |  |  | 
